Measured values published in paper PMC6013238, “Development of novel NEMO-binding domain mimetics for inhibiting IKK/NF-κB activation” (PLoS Biology, 2018).
“And” between values parts separate entries of the source, which are not always exact repeats. Equal values may be shown once.

Legend:
[1] = tested on: Ercc1−/Δ mice; test: Chronic treatment of Ercc1−/Δ mice (health span); format: in vivo, mouse; conditions: preliminary experiments
From the text: Thus, these novel NBD mimetics could be used not only for treatment of inflammatory and degenerative diseases but also for aging.

[2] = tested on: mdx mice; test: Chronic treatment of mdx mice, qRT-PCR of eMyHC and Pax7 in TA muscle; format: in vivo, mouse; conditions: Fig 7D, SR 30 mg/kg, 8K-NBD 10 mg/kg, 4 wk, single mice
From the text: Fig 7 NBD mimetics improve muscular pathology and grip strength in mdx mice. (A) Shown is the treatment regimen with NBD mimetics in mdx mice. (B) Hematoxylin–eosin staining of TA muscle from 7-wk-old, treated or untreated mdx mice. Images were taken at magnification of 20×. Representative images were shown for each treatment group. […] (E) TA muscle from 7-wk-old, treated or untreated mdx mice was stained with laminin by IHC to outline myofibers. Overall images of TA muscle were shown on the left side, and the inset panel images were shown on the right side. (F) Quantitation of minimum Feret diameter in centrally and noncentrally nucleated myofibers. (G) Forelimb force determined by grip strength test. […] Underlying data can be found in S1 Data. eMyHC, embryonic myosin heavy chain; IHC, immunohistochemistry; NBD, NEMO-binding domain; NEMO, NF-κB essential modulator; Pax7, paired box protein 7; qRT-PCR, quantitative real-time polymerase chain reaction; TA, tibialis anterior.
To determine whether SR12343 and SR12460 improve muscle pathology, TA muscle was stained with hematoxylin–eosin to assess inflammatory infiltration, necrosis, central nucleation, and fibrosis. […] To further quantitate the extent of inflammation in mdx muscle tissues, diaphragm and TA muscle were immunostained for cluster of differentiation 68 (CD68), a macrophage marker. […]

For `O=C(CNc1ccc(Cl)cn1)NCCc1cccc(Br)c1` [SR12343], the Health span [1] was “extended health span” and the “Pax7 mRNA in TA muscle (qRT-PCR)” value [2] was 1.512 and 1.485 and 1.5466 and 1.253 and 1.1889 and 1.394.
